From the NIST ThermoML archive (doi:10.1021/je800463k)

Assay: mn = molality of the nth substance listed, in mol/kg
Conditions: 101 kPa, Liquid; for electrical conductivity: Frequency=0.001 MHz, Alternating current cell with electrodes; for speed of sound: Frequency=2 MHz; for mass density: Pycnometric method

[Mg+2].[O-][Cl+3]([O-])([O-])[O-].[O-][Cl+3]([O-])([O-])[O-] [magnesium perchlorate] + CO
Conditions	electrical conductivity [S/m]	mass density [kg/m3]	speed of sound [m/s]	viscosity [mPa·s]
273.15 K, m1 = 0.0542	0.2699	–	1195.2	0.8742
273.15 K, m1 = 0.078	0.4031	–	1201.1	–
273.15 K, m1 = 0.0925	0.4435	–	1203.6	0.9094
273.15 K, m1 = 0.1673	0.6702	–	1212.8	0.9874
273.15 K, m1 = 0.2872	0.9762	–	1226	1.13
273.15 K, m1 = 0.3228	1.058	–	1230.6	1.168
273.15 K, m1 = 0.4313	1.299	–	1245.5	1.329
273.15 K, m1 = 0.6444	1.752	–	1268.2	1.64
273.15 K, m1 = 1.059	2.122	–	1308.9	2.393
273.15 K, m1 = 1.395	2.273	–	1342.5	3.292
273.15 K, m1 = 1.717	2.343	–	1366.9	3.854
273.15 K, m1 = 2	2.355	–	1385.5	4.766
283.15 K, m1 = 0.0542	0.3054	–	1162.7	0.7345
283.15 K, m1 = 0.078	0.4563	–	1167.8	–
283.15 K, m1 = 0.0925	0.5023	–	1170.8	0.768
283.15 K, m1 = 0.1673	0.7619	–	1178.9	0.8318
283.15 K, m1 = 0.2872	1.116	–	1193.9	0.9437
283.15 K, m1 = 0.3228	1.213	–	1197.5	0.9745
283.15 K, m1 = 0.4313	1.497	–	1213.2	1.102
283.15 K, m1 = 0.6444	2.001	–	1236.8	1.342
283.15 K, m1 = 1.059	2.513	–	1278.5	1.928
283.15 K, m1 = 1.395	2.731	–	1313.4	2.608
283.15 K, m1 = 1.717	2.848	–	1336.5	3.023
283.15 K, m1 = 2	2.892	–	1358.1	3.682
293.15 K, m1 = 0.0542	0.3414	–	1128.4	0.6286
293.15 K, m1 = 0.078	0.5074	–	1134.9	–
293.15 K, m1 = 0.0925	0.5615	–	1137.7	0.6569
293.15 K, m1 = 0.1673	0.854	–	1146	0.7098
293.15 K, m1 = 0.2872	1.253	–	1161.8	0.7995
293.15 K, m1 = 0.3228	1.37	–	1165.4	0.8248
293.15 K, m1 = 0.4313	1.702	–	1181.4	0.9286
293.15 K, m1 = 0.6444	2.209	–	1205.9	1.112
293.15 K, m1 = 1.059	2.926	–	1247.5	1.585
293.15 K, m1 = 1.395	3.221	–	1282.1	2.11
293.15 K, m1 = 1.717	3.39	–	1307.5	2.43
293.15 K, m1 = 2	3.474	–	1329.1	2.923
294 K, m1 = 0.078	–	802.89	–	–
295.3 K, m1 = 0.0925	–	802.82	–	–
296.85 K, m1 = 0.3228	–	829.87	–	–
296.9 K, m1 = 0.2872	–	825.72	–	–
297.7 K, m1 = 0.078	–	799.44	–	–
298 K, m1 = 0.0925	–	800.22	–	–
298.15 K, m1 = 0.0542	0.3599	–	1111.3	0.5841
298.15 K, m1 = 0.078	0.5344	–	1119.1	–
298.15 K, m1 = 0.0925	0.5917	–	1121.2	0.6098
298.15 K, m1 = 0.1673	0.9009	–	1129.8	0.656
298.15 K, m1 = 0.2872	1.332	–	1145.7	0.7391
298.15 K, m1 = 0.3228	1.452	–	1149.1	0.7618
298.15 K, m1 = 0.4313	1.807	–	1165.2	0.856
298.15 K, m1 = 0.6444	2.389	–	1189.2	1.019
298.15 K, m1 = 1.059	3.143	–	1232	1.446
298.15 K, m1 = 1.395	3.48	–	1267.7	1.91
298.15 K, m1 = 1.717	3.683	–	1293.2	2.196
298.15 K, m1 = 2	3.779	–	1314.4	2.624
298.3 K, m1 = 0.1673	–	809.54	–	–
299.45 K, m1 = 0.078	–	797.76	–	–
299.75 K, m1 = 0.3228	–	827.21	–	–
299.8 K, m1 = 0.0925	–	798.59	–	–
299.8 K, m1 = 0.2872	–	823.08	–	–
301.15 K, m1 = 0.078	–	796.1	–	–
301.15 K, m1 = 0.1673	–	806.95	–	–
301.65 K, m1 = 0.0925	–	796.87	–	–
302.7 K, m1 = 0.3228	–	824.56	–	–
302.75 K, m1 = 0.2872	–	820.44	–	–
302.75 K, m1 = 2	–	1006.5	–	–
302.9 K, m1 = 0.078	–	794.53	–	–
303.05 K, m1 = 0.1673	–	805.22	–	–
303.15 K, m1 = 0.0542	0.3785	–	1094.8	0.5431
303.15 K, m1 = 0.078	0.5625	–	1101.6	–
303.15 K, m1 = 0.0925	0.6223	–	1104.6	0.5669
303.15 K, m1 = 0.1673	0.9485	–	1114	0.6084
303.15 K, m1 = 0.2872	1.407	–	1129.8	0.684
303.15 K, m1 = 0.3228	1.534	–	1133.5	0.7005
303.15 K, m1 = 0.4313	1.913	–	1147	0.7937
303.15 K, m1 = 0.6444	2.541	–	1173.3	0.9348
303.15 K, m1 = 1.059	3.367	–	1217	1.323
303.15 K, m1 = 1.395	3.746	–	1253.3	1.732
303.15 K, m1 = 1.717	3.979	–	1277.6	1.99
303.15 K, m1 = 2	4.1	–	1301.6	2.362
303.5 K, m1 = 0.4313	–	838.73	–	–
303.55 K, m1 = 1.059	–	918.43	–	–
303.55 K, m1 = 1.717	–	980.32	–	–
303.9 K, m1 = 0.0542	–	788.92	–	–
304.2 K, m1 = 0.0925	–	794.46	–	–
304.55 K, m1 = 1.395	–	955.29	–	–
304.85 K, m1 = 0.6444	–	864.55	–	–
305.45 K, m1 = 0.2872	–	817.88	–	–
305.5 K, m1 = 0.078	–	792.01	–	–
305.5 K, m1 = 0.3228	–	821.98	–	–
305.7 K, m1 = 0.1673	–	802.67	–	–
305.75 K, m1 = 1.059	–	916.49	–	–
305.95 K, m1 = 0.6444	–	863.6	–	–
306 K, m1 = 1.717	–	978.23	–	–
306.55 K, m1 = 0.4313	–	836.04	–	–
306.6 K, m1 = 0.0542	–	786.39	–	–
306.65 K, m1 = 2	–	1003.3	–	–
306.8 K, m1 = 0.0925	–	791.94	–	–
306.95 K, m1 = 1.395	–	953.22	–	–
307.15 K, m1 = 0.078	–	790.37	–	–
307.25 K, m1 = 0.2872	–	816.19	–	–
307.3 K, m1 = 0.3228	–	820.29	–	–
307.35 K, m1 = 0.1673	–	801.01	–	–
308 K, m1 = 1.059	–	914.51	–	–
308.05 K, m1 = 0.6444	–	861.75	–	–
308.35 K, m1 = 0.0542	–	784.7	–	–
308.45 K, m1 = 1.717	–	976.24	–	–
308.5 K, m1 = 0.4313	–	834.26	–	–
309.25 K, m1 = 2	–	1001.1	–	–
309.3 K, m1 = 1.395	–	951.18	–	–
309.35 K, m1 = 0.0925	–	789.49	–	–
309.7 K, m1 = 0.078	–	787.95	–	–
309.9 K, m1 = 0.2872	–	813.69	–	–
309.95 K, m1 = 0.3228	–	817.77	–	–
310.85 K, m1 = 1.717	–	974.13	–	–
311.05 K, m1 = 0.0542	–	782.22	–	–
311.05 K, m1 = 0.0925	–	787.88	–	–
311.15 K, m1 = 0.6444	–	859.02	–	–
311.4 K, m1 = 0.4313	–	831.61	–	–
311.45 K, m1 = 1.059	–	911.67	–	–
311.55 K, m1 = 1.395	–	949.18	–	–
311.75 K, m1 = 0.1673	–	796.89	–	–
311.75 K, m1 = 2	–	999.04	–	–
312.55 K, m1 = 0.2872	–	811.13	–	–
312.6 K, m1 = 0.3228	–	815.21	–	–
313.15 K, m1 = 0.0542	0.4141	–	1062.7	0.4735
313.15 K, m1 = 0.078	0.6138	–	1069.7	–
313.15 K, m1 = 0.0925	0.6801	–	1072.7	0.4938
313.15 K, m1 = 0.1673	1.04	–	1082.2	0.5284
313.15 K, m1 = 0.2872	1.549	–	1098.9	0.5874
313.15 K, m1 = 0.3228	1.691	–	1102.5	0.6082
313.15 K, m1 = 0.4313	2.119	–	1115.5	0.6824
313.15 K, m1 = 0.6444	2.844	–	1141.6	0.7966
313.15 K, m1 = 1.059	3.813	–	1185.5	1.119
313.15 K, m1 = 1.395	4.297	–	1224.6	1.445
313.15 K, m1 = 1.717	4.592	–	1249.9	1.656
313.15 K, m1 = 2	4.75	–	1273.8	1.945
313.25 K, m1 = 0.4313	–	829.89	–	–
313.25 K, m1 = 1.717	–	972.12	–	–
313.35 K, m1 = 0.1673	–	795.24	–	–
313.6 K, m1 = 0.0542	–	779.81	–	–
313.75 K, m1 = 1.395	–	947.21	–	–
314.05 K, m1 = 0.6444	–	856.37	–	–
314.15 K, m1 = 2	–	996.96	–	–
314.65 K, m1 = 1.059	–	908.74	–	–
315.1 K, m1 = 0.2872	–	808.66	–	–
315.2 K, m1 = 0.3228	–	812.71	–	–
315.8 K, m1 = 0.1673	–	792.81	–	–
315.85 K, m1 = 0.6444	–	854.66	–	–
315.9 K, m1 = 1.395	–	945.34	–	–
316 K, m1 = 0.4313	–	827.39	–	–
316.1 K, m1 = 0.0542	–	777.42	–	–
316.75 K, m1 = 1.717	–	969.14	–	–
317.85 K, m1 = 1.059	–	906.01	–	–
317.9 K, m1 = 2	–	993.97	–	–
318.5 K, m1 = 0.0542	–	774.98	–	–
318.5 K, m1 = 0.6444	–	851.96	–	–
318.65 K, m1 = 0.4313	–	824.78	–	–
319 K, m1 = 1.717	–	967.11	–	–
319.3 K, m1 = 1.395	–	942.34	–	–
320.05 K, m1 = 0.0542	–	773.35	–	–
320.15 K, m1 = 2	–	991.84	–	–
320.2 K, m1 = 0.6444	–	850.2	–	–
320.65 K, m1 = 1.059	–	903.14	–	–
321.15 K, m1 = 0.4313	–	822.18	–	–
322.3 K, m1 = 2	–	989.79	–	–
322.35 K, m1 = 1.717	–	964.07	–	–
322.45 K, m1 = 1.059	–	901.27	–	–
322.5 K, m1 = 1.395	–	939.42	–	–
